The results in this text go back to patent US7618988B2, “Use of substituted aminomethyl chromans” (Merck Patentgesellschaft, priority 2001, dated 2009).

Test [1] has as its system neuroleptics sensitized monkey. In words: neuroleptics sensitized monkey. The class given is in vivo. Conditions: haloperidol challenge, scoring system. From the text:
Another typical animal model is the neuroleptics sensitized monkey according to D. E. Casey, Psychopharmacology, 1996; 124: 134-140. Monkeys treated repeatedly with conventional neuroleptics are highly sensitive to a subsequent challenge dose of neuroleptic drugs. When challenged, the monkeys immediately show extrapyramidal motor side effects such as dystonia, dyskinesias, akathisia, and bradykinesia which are rated by a scoring system. The conventional neuroleptic drug haloperidol is given as a challenge.

Test [2] concerns patients with Huntington's disease. In words: trial in patients with Huntington's disease. Type of test: in vivo, human. Conditions: add on, 2.5 to 20 mg b.i.d. The method, then: A typical trial to establish the effect of the compounds according to the invention on chorea, voluntary motor performance, and functional disability in patients with Huntington's disease encompasses 32 genetically diagnosed patients. (2R,4R)-2-({[5-(4-fluorophenyl)-pyridin-3ylmethyl]-amino}-methyl)-chroman-4-ol monohydrochloride hemihydrate or placebo is administered as “add on” to the conventional treatment, which is maintained unchanged during the whole study. The dose of blinded medication is titrated over a period of 3 weeks in a range from 2.5 to 20 mg b.i.d. Then the medication is held constant for 1 week. Assessments are performed in the week before and at the last day of the trial. Chorea is scored using the abnormal involuntary movement scale (AIMS, W. Guy, in: ECDEU assessment manual. Rockville Md.: US dept. of health, education and welfare, 1976: 534-537), the unified Huntington's disease rating scale (UHDRS, Huntington study group, 1996, Movement Disord, 11: 13642), and judgement of video recordings. Voluntary motor performance is assessed using the UHDRS motor scale. Patients and their partners complete a questionnaire regarding functional disability.

For another test, the target named is 5HT1A receptor (Homo sapiens, UniProt P08908). Put plainly: GTP-gamma-S test (5HT1A agonism). Type of test: biochemical. Conditions: in vitro, 5HT1A agonistic properties; read-out: ED50 in GTP-gamma-S test. From the text: (§1) The affinity to the 5-HT1A receptor can be determined in vitro by radioligand binding experiments according to Cossery J M et al. (Eur. J. Pharmacol. 1987; 140: 143-155). The functional agonistic properties at the 5HT1A receptor can be determined in vitro in the GTP-gamma-S test (Newman-Tancredi A et al., Eur. J. Pharmacol.1996; 307: 107-111). A standard in vivo animal model to test for the 5HT1A agonistic properties is the ultrasonic vocalization test in rats (e.g. deFry J et al., Eur. J. Pharmacol. 1993; 249: 331-339; Sanchez C, Behav. Pharmacol. 1993; 4: 269-277). The affinity for dopamine D4 receptors can be determined in vitro by radioligand binding experiments according to Klokow M et al. (Drug Res. 1986; 36: 197-200).

Test [3] concerns rats. In words: neuroleptics-induced muscle rigidity in rats. The class given is in vivo, rat. Conditions: enhanced by haloperidol. From the text: A typical animal model is neuroleptics-induced muscle rigidity in rats according to S. Wolfarth et al., Arch. Pharmacol. 1992; 345: 209-212. Rats are challenged with the conventional neuroleptic drug haloperidol which enhances muscle tone. Muscle tone is electromechanically measured as the resistence to passive flexion and extension of the hind limb.

The test system of test [4] is Parkinsonian cynomolgus monkey. In words: MPTP Parkinsonian cynomolgus monkey, parkinsonian symptoms (Laval University Disability Scale). Type of test: in vivo. From the text:
A typical animal model for idiopathic Parkinson's disease is the Parkinsonian cynomolgus monkey according to P. J. Blanchet et al., Exp. Neurology 1998; 153: 214-222. Monkeys render parkinsonian by repeated injections of 1-methyl-4-phenyl-1,2,3,6-tetrahydropyridine (MPTP). Parkinsonian symptoms are qualitatively assessed by the use of the Laval University Disability Scale (B. Gomez-Mancilla et al., 1993; Mov. Disord. 8: 144-150) measuring the following symptoms: posture, mobility, climbing, gait, holding food, vocalizing, grooming, social interaction.

The test system of another test is Pietrain pig. Put plainly: Campus Syndrome in the Pietrain pig (tremor). Conditions: in vivo. From the text:
Typical genetic models in mutant animals are the Campus Syndrome in the Pietrain pig according to A. Richter et al. (Exp. Neurology, 1995; 134: 205-213) or the Weaver mutant mouse according to J. R. Simon and B. Ghetti (Mol. Neurobiol., 1994; 9: 183-189). In the Campus Syndrome model, these mutant pigs show a high-frequency tremor when standing and during locomotion, but not while lying at rest. Assessment of tremor is made by accelerometric recording. In the Weaver mutant mouse, degenerative cerebellar atrophy is […] in association with tremor, gait instability, and toppling over the sides after a few steps.

The test system of the next test is rat. Put plainly: striatonigral degeneration model in the rat (turning behavior). Conditions: induced by apomorphine or amphetamine. Type of test: in vivo. From the text:
Another more recent animal model is the striatonigral degeneration approach in the rat according to G. K. Wenning et al., J. Neural Transm. Suppl., 1999; 55: 103-113. Rats receive an unilateral injection of 6-hydroxydopamine into the left medial forebrain bundle followed by an injection of quinolinic acid into the ipsilateral striatum inducing nigrostriatal degeneration. The degeneration results in turning behavior to a challenge with dopaminomimetics such as apomorphine or amphetamine. Turning behavior is measured by an automated recorder.

The test system of another test is mutant dystonic hamster. Put plainly: mutant dystonic hamster. Type of test: in vivo. Conditions: scoring system. From the text: A typical animal model is the mutant dystonic hamster according to A. Richter and W. Löscher, Prog. Neurobiol. 1998; 54: 633-677. In this genetically dystonic hamsters, dystonic attacks are provoked by taking the animal from the home cage and placing it on a balance. The dystonic syndrome consists of a sequence of abnormal movements, and the severity of the single symptoms is rated by a scoring system.

The subject of test [5] is rats. In words: ultrasonic vocalization test in rats. Conditions: Rattus norvegicus, in vivo.
Source text: as §1

5HT1A receptor, sequence (P08908 whole entry): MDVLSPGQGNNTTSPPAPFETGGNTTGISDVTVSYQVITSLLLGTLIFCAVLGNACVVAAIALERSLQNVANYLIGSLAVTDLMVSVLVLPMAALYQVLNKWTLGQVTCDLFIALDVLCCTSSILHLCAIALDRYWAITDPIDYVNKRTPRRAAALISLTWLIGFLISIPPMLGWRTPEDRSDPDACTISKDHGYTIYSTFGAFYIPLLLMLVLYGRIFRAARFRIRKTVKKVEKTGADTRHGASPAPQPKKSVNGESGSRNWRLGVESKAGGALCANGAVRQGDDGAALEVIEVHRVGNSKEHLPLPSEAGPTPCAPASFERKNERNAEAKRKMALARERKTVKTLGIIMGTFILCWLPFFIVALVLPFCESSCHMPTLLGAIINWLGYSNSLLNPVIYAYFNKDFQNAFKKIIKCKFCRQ

Turning to `O[C@@H]1C[C@H](CNCc2cncc(-c3ccc(F)cc3)c2)Oc2ccccc21` [(2R,4R)-2-({[5-(4-fluorophenyl)-pyridin-3ylmethyl]-amino}-methyl)-chroman-4-ol], in test [1], the “extrapyramidal motor side effects” value is listed as “dose-dependently reduce the extrapyramidal motor side effects”. Moreover, the “voluntary and involuntary motor performance” value in test [2] was “significant improvement of voluntary and involuntary motor performance”. For the same compound, the EC50 on 5HT1A receptor is 33 nM. For the same compound, the muscle tone entry in the test on rats [3] was “decrease the muscle tone enhanced by haloperidol”. Also, in [4] (Laval University Disability Scale), the parkinsonian symptoms result is “reduce all the parkinsonian symptoms”. Further, the total activity result in [4] (cynomolgus monkey, in vivo) is recorded as “increased total activity”. In addition, in the test on Pietrain pig, the “tremor when standing and during locomotion” value was “reduce disabling tremor when standing and during locomotion”. Moreover, in the test with rat, the turning behavior entry is listed as “dose-dependently antagonized”. In the test with mutant dystonic hamster, the “severity of dystonic symptoms” value is recorded as “dose-dependently reduce the severity of dystonic symptoms”. This compound registered an ED50 in the test on rats [5] of 2 mg/kg.
